25 compounds from patent US9776990B2, “Isoindolone derivatives” (AbbVie Inc., priority 2012, dated 2017) can be followed below.

Assay [1] has as its target BRD4 (BDI_K57-E168) (Homo sapiens (Human), UniProt O60885). The assay can be described thus: TR-FRET bromodomain binding assay, BRD4 first bromodomain. The conditions noted are these: His-tagged BD1, 100 nM Alexa647 probe. On the procedure: (§1) A time-resolved fluorescence resonance energy transfer (TR-FRET) assay was used to determine the affinities of compounds of the Examples listed in Table 1 for each bromodomain of BRD4. His-tagged first (BD1: amino acids K57-E168) and second (BD2: amino acids E352-E168) bromodomains of BRD4 were expressed and purified. An Alexa647-labeled BET-inhibitor was used as the fluorescent probe in the assay.
(§2) Compound dilution series were prepared in DMSO via a 3-fold serial dilution from 2.5 mM to 42 nM. Compounds were then diluted 6:100 in assay buffer (20 mM Sodium Phosphate, pH 6.0, 50 mM NaCl, 1 mM EDTA, 0.01% Triton X-100, 1 mM DTT) to yield 3× working solutions. Six microliters (μL) of the working solution was then transferred to white, low-volume assay plates (Costar #3673). A 1.5× assay mixture containing His-tagged bromodomain, Europium-conjugated anti-His antibody (Invitrogen PV5596) and the Alexa-647-conjugated probe molecule was also prepared. Twelve μL of this solution were added to the assay plate to reach a final volume of 18 μL. The final concentration of 1× assay buffer contains 2% DMSO, 50 μM−0.85 nM compound, 8 nM bromodomain, 1 nM antibody and 100 or 30 nM probe (for BDI or BDII, respectively). After a one-hour incubation at room temperature, TR-FRET ratios were determined using an Envision multilabel plate reader (Ex 340, Em 495/520).
(§3) TR-FRET data were normalized to the means of 24 no-compound controls (“high”) and 8 controls containing 1 μM un-labeled probe (“low”). Percent inhibition was plotted as a function of compound concentration and the data were fit with the 4 parameter logistic equation to obtain IC50s Inhibition constants (Ki) were calculated from the IC50s, probe Kd and probe concentration. Typical Z′ values were between 0.65 and 0.75. The minimum significant ratio was determined to evaluate assay reproducibility (Eastwood et al., (2006) J Biomol Screen, 11: 253-261). The MSR was determined to be 2.03 for BDI and 1.93 for BDII, and a moving MSR (last six run MSR overtime) for both BDI and BDII was typically <3.

The target in assay [2] is BRD4 (BDII_E352-M457) (Homo sapiens (Human), UniProt O60885). The assay can be described thus: TR-FRET bromodomain binding assay, BRD4 second bromodomain. The conditions noted are these: His-tagged BD2, 30 nM Alexa647 probe. The procedure:
as §1, §2, §3

For assay [3], the system named is breast cancer cell line MX-1. As to the kind of experiment: MX-1 cell line proliferation assay (3-day, Cell Titer Glo). The assay is classed as cell-based, human. The conditions noted are these: Homo sapiens, MX1, MX-1 cells, 72 hours, read-out: Cellular proliferation: EC50. The procedure: The impact of compounds of the Examples on cancer cell proliferation was determined using the breast cancer cell line MX-1 (ATCC) in a 3-day proliferation assay. MX-1 cells were maintained in RPMI supplemented with 10% FBS at 37 C.° and an atmosphere of 5% CO2. For compound testing, MX-1 cells were plated in 96-well black bottom plates at a density of 5000 cells/well in 90 μl of culture media and incubated at 37° overnight to allow cell adhesion and spreading. Compound dilution series were prepared in DMSO via a 3-fold serial dilution from 3 mM to 0.1 μM. The DMSO dilution series were then diluted 1:100 in phosphate buffered saline, and 10 μL of the resulted solution were added to the appropriate wells of the MX-1 cell plate. The final compound concentrations in the wells were 3, 1, 0.3, 0.1, 0.03, 0.01, 0.003, 0.001, 0.0003 and 0.0001 μM.
Luminescence readings from the Cell Titer Glo assay were normalized to the DMSO treated cells and analyzed using the GraphPad Prism software with sigmoidal curve fitting to obtain EC50s. The minimum significant ratio (MSR) was determined to evaluate assay reproducibility (Eastwood et al., (2006) J Biomol Screen, 11: 253-261).

Some results are limits rather than exact numbers.

Turning to `Cc1[nH]c(-c2ccccc2)c2c1C(=O)CCC2` [Example 1, 3-methyl-1-phenyl-2,5,6,7-tetrahydro-4H-isoindol-4-one], the Ki in assay [1] was determined as 3680 nM; in assay [2], 3070 nM. Besides, the EC50 in assay [3] is 3400 nM.
The like results for `Cc1[nH]c(-c2ccc(S(N)(=O)=O)cc2)c2c1C(=O)CCC2` [Example 5, 4-(3-methyl-4-oxo-4,5,6,7-tetrahydro-2H-isoindol-1-yl)benzenesulfonamide] were, in that order, 1400 nM, 2030 nM and 3700 nM.
For `COc1cc(-c2[nH]c(C)c3c2CCCC3=O)cc(OC)c1OC` [Example 7, 3-methyl-1-(3,4,5-trimethoxyphenyl)-2,5,6,7-tetrahydro-4H-isoindol-4-one] the same measures were 261 nM, 805 nM and 676 nM.
Consider `Cc1[nH]c(-c2ccc(S(C)(=O)=O)cc2)c2c1C(=O)CCC2` [Example 8, 3-methyl-1-[4-(methylsulfonyl)phenyl]-2,5,6,7-tetrahydro-4H-isoindol-4-one], for which the figures for the Ki in assay [1] and in assay [2] were 1430 nM and 3820 nM, respectively. Moreover, the EC50 in assay [3] turned out to be 2500 nM.
Regarding `Cc1[nH]c(-c2cccc(C(N)=O)c2)c2c1C(=O)CCC2` [Example 9, 3-(3-methyl-4-oxo-4,5,6,7-tetrahydro-2H-isoindol-1-yl)benzamide], the inhibition constant (Ki) stood at 961 nM in assay [1] and 3100 nM in assay [2]. The EC50 in assay [3] came out at 2750 nM.
For `Cc1[nH]c(-c2cccc3[nH]ccc23)c2c1C(=O)CCC2` [Example 10, 1-(1H-indol-4-yl)-3-methyl-2,5,6,7-tetrahydro-4H-isoindol-4-one] the same measures were 1790 nM, 4060 nM and 1230 nM.
On to `Cc1[nH]c(-c2ccccc2OCc2ccccc2)c2c1C(=O)CCC2` [Example 18, 1-[2-(benzyloxy)phenyl]-3-methyl-2,5,6,7-tetrahydro-4H-isoindol-4-one], for which the results for the inhibition constant (Ki) in assay [1] and in assay [2] were 943 nM and 2030 nM, respectively. In assay [3], the EC50 was found to be 1230 nM.
As to `Cc1[nH]c(-c2cccc3ccccc23)c2c1C(=O)CCC2` [Example 19, 3-methyl-1-(naphthalen-1-yl)-2,5,6,7-tetrahydro-4H-isoindol-4-one], in assay [3], the EC50 amounted to 3180 nM.
`Cc1[nH]c(-c2ccccc2OCC2CCOC2)c2c1C(=O)CCC2` (stereo not drawn) [Example 29, 3-methyl-1-[2-(tetrahydrofuran-3-ylmethoxy)phenyl]-2,5,6,7-tetrahydro-4H-isoindol-4-one]: the Ki in assay [1] was 315 nM; in assay [2], 2920 nM. Also, in assay [3], the EC50 was over 3000 nM.
For `Cc1[nH]c(-c2ccccc2OCC2CCCO2)c2c1C(=O)CCC2` (stereo not drawn) [Example 31, 3-methyl-1-[2-(tetrahydrofuran-2-ylmethoxy)phenyl]-2,5,6,7-tetrahydro-4H-isoindol-4-one] the same measures were 765 nM, 4680 nM and over 3000 nM.
For `Cc1[nH]c(-c2ccccc2OCC2CCOCC2)c2c1C(=O)CCC2` [Example 32, 3-methyl-1-[2-(tetrahydro-2H-pyran-4-ylmethoxy)phenyl]-2,5,6,7-tetrahydro-4H-isoindol-4-one] the same measures were 202 nM, 1940 nM and 1880 nM.
For `Cc1[nH]c(-c2ccccc2OCCN2CCOCC2)c2c1C(=O)CCC2` [Example 33, 3-methyl-1-{2-[2-(morpholin-4-yl)ethoxy]phenyl}-2,5,6,7-tetrahydro-4H-isoindol-4-one] the same measures were 1040 nM, 8160 nM and over 3000 nM.
As for `Cc1[nH]c(-c2ccccc2OCc2ccccn2)c2c1C(=O)CCC2` [Example 34, 3-methyl-1-[2-(pyridin-2-ylmethoxy)phenyl]-2,5,6,7-tetrahydro-4H-isoindol-4-one], the Ki was determined as 1350 nM in assay [1] and 2620 nM in assay [2]. In addition, the EC50 in assay [3] is over 3000 nM.
For `Cc1[nH]c(-c2ccccc2OCc2cccnc2)c2c1C(=O)CCC2` [Example 37, 3-methyl-1-[2-(pyridin-3-ylmethoxy)phenyl]-2,5,6,7-tetrahydro-4H-isoindol-4-one] the same measures were 526 nM, 4140 nM and over 3000 nM.
For `Cc1[nH]c(-c2cc(N)ccc2Oc2ccccc2)c2c1C(=O)CCC2` [Example 39, 1-(5-amino-2-phenoxyphenyl)-3-methyl-2,5,6,7-tetrahydro-4H-isoindol-4-one], the Ki in assay [1] amounted to 148 nM; in assay [2], 365 nM. In addition, the EC50 in assay [3] is 232 nM.
For `Cc1c2c(c(-c3cc(NS(C)(=O)=O)ccc3Oc3ccccc3)n1C)CCCC2=O` [Example 41, N-[3-(2,3-dimethyl-4-oxo-4,5,6,7-tetrahydro-2H-isoindol-1-yl)-4-phenoxyphenyl]methanesulfonamide] the same measures were 161 nM, 216 nM and 370 nM.
For `CC(=O)Nc1ccc(Oc2ccccc2)c(-c2c3c(c(C)n2C)C(=O)CCC3)c1` [Example 42, N-[3-(2,3-dimethyl-4-oxo-4,5,6,7-tetrahydro-2H-isoindol-1-yl)-4-phenoxyphenyl]acetamide] the same measures were 569 nM, 1090 nM and over 3000 nM.
For the compound `Cc1[nH]c(-c2cc(N)ccc2Sc2ccccc2)c2c1C(=O)CCC2` [Example 43, 1-[5-amino-2-(phenylsulfanyl)phenyl]-3-methyl-2,5,6,7-tetrahydro-4H-isoindol-4-one], the Ki in assay [1] was 1820 nM; in assay [2] it was 568 nM. The EC50 in assay [3] is over 3000 nM.
For `Cc1[nH]c(-c2ccccc2N2CCOCC2)c2c1C(=O)CC(C)(C)C2` [Example 61, 3,6,6-trimethyl-1-[2-(morpholin-4-yl)phenyl]-2,5,6,7-tetrahydro-4H-isoindol-4-one], the inhibition constant (Ki) in assay [1] was found to be 2200 nM; in assay [2], 1680 nM.
As to `Cc1[nH]c(-c2ccccc2OCc2ccccc2)c2c1C(=O)CC(C)(C)C2` [Example 62, 1-[2-(benzyloxy)phenyl]-3,6,6-trimethyl-2,5,6,7-tetrahydro-4H-isoindol-4-one], the Ki in assay [1] stood at 1500 nM; in assay [2], 1750 nM.
For `Cc1[nH]c(-c2ccccc2Oc2ccccc2)c2c1C(=O)CC(C)(C)C2` [Example 63, 3,6,6-trimethyl-1-(2-phenoxyphenyl)-2,5,6,7-tetrahydro-4H-isoindol-4-one] the same measures were 786 nM and 1030 nM.
For `Cc1[nH]c(-c2cc(N)ccc2Oc2ccccc2)c2c1C(=O)CC(C)C2` (stereo not drawn) [Example 66, 1-(5-amino-2-phenoxyphenyl)-3,6-dimethyl-2,5,6,7-tetrahydro-4H-isoindol-4-one] the same measures were 58 nM and 69 nM.
The like results for `Cc1[nH]c(-c2ccccc2Oc2ccccc2)c2c1C(=O)CC(C(C)C)C2` (stereo not drawn) [Example 70, 3-methyl-1-(2-phenoxyphenyl)-6-(propan-2-yl)-2,5,6,7-tetrahydro-4H-isoindol-4-one] were, in that order, 1200 nM and 2220 nM.
Regarding `Cc1[nH]c(-c2cc(NS(C)(=O)=O)ccc2Oc2ccccc2)c2c1C(=O)CC(c1ccccc1)C2` (stereo not drawn) [Example 72, N-[3-(3-methyl-4-oxo-6-phenyl-4,5,6,7-tetrahydro-2H-isoindol-1-yl)-4-phenoxyphenyl]methanesulfonamide], the inhibitory constant (Ki) in assay [1] is 7280 nM; in assay [2], 22200 nM.
`Cc1[nH]c(-c2cc(S(C)(=O)=O)ccc2OCC2CC2)c2c1C(=O)CCC2` [Example 73, 1-[2-(cyclopropylmethoxy)-5-(methylsulfonyl)phenyl]-3-methyl-2,5,6,7-tetrahydro-4H-isoindol-4-one]: the Ki came to 34 nM in assay [1] and 461 nM in assay [2].
